Results as given in ChEMBL document CHEMBL5120871, “Identification of benzamides derivatives of norfloxacin as promising microRNA-21 inhibitors via repressing its transcription” (Bioorg Med Chem, 2022).
Calls of active or inactive are those of the source. No cut-off for these calls is given here.

Columns and labels:
microRNA 21 [1] = assay: Inhibition of miR-21 maturation in human MCF7 cells assessed as reduction in pre-miR-21 expression at 30 uM measured upto 24 hrs by RT-PCR analysis relative to control; format: cell-based
microRNA 21 [2] = assay: Inhibition of miR-21 maturation in human LN-229 cells assessed as reduction in pre-miR-21 expression at 30 uM measured upto 24 hrs by RT-PCR analysis relative to control; format: cell-based
microRNA 21 [3] = assay: Inhibition of miR-21 maturation in human U87 cells assessed as reduction in pre-miR-21 expression at 30 uM measured upto 24 hrs by RT-PCR analysis relative to control; format: cell-based
microRNA 21 [4] = assay: Inhibition of miR-21 maturation in human SGC-7901 cells assessed as reduction in pre-miR-21 expression at 30 uM measured upto 24 hrs by RT-PCR analysis relative to control; format: cell-based
microRNA 21 [5] = assay: Inhibition of wild type full length miR-21 in human HeLa cells co-expressing firefly luciferase and renilla luciferase gene assessed as fold change in Luc/Rlu by measuring relative […] intensity at 20 uM by Dual-Luciferase reporter based luminometer analysis; format: cell-based
HeLa [6] = assay: Antiproliferative activity against human HeLa cells incubated for 24 hrs by CCK-8 assay; format: functional, cell-based
HCT-116 [7] = assay: Antiproliferative activity against human HCT-116 cells incubated for 24 hrs by CCK-8 assay; format: functional, cell-based; conditions: HCT-116, 24 h
[8] = Cytotoxicity against human BEAS-2B cells assessed as reduction in cell proliferation incubated for 24 hrs by CCK-8 assay; format: toxicity, cell-based
microRNA 21 [9] = assay: Inhibition of miR-21 in human HeLa cells assessed as downregulation of pri-miR-21 level at 10 uM and measured for 24 to 48 hrs by RT-qPCR analysis; format: cell-based; conditions: time 24-48 hrs
HeLa [10] = assay: Induction of apoptosis in human HeLa cells assessed as necrotic cells at 10 uM incubated for 24 hrs by annexin V-FITC and propidium iodide staining based flow cytometry (reference value: 0.08%); format: functional
HeLa [11] = assay: Induction of apoptosis in human HeLa cells assessed as necrotic cells at 20 uM incubated for 24 hrs by annexin V-FITC and propidium iodide staining based flow cytometry (reference value: 0.08%); format: functional
microRNA 21 [12] = assay: Inhibition of miR-21 in human HeLa cells assessed as downregulation of ATF4 level at 10 uM incubated for 48 hrs by RT-qPCR analysis; format: cell-based
microRNA 21 [13] = assay: Inhibition of wild type full length miR-21 in human HeLa cells co-expressing firefly luciferase and renilla luciferase gene assessed as fold change in Luc/Rlu by measuring relative […] intensity at 10 uM by Dual-Luciferase reporter based luminometer analysis; format: cell-based
microRNA 21 [14] = assay: Inhibition of miR-21 in human HeLa cells assessed as downregulation of ZNF251 level at 10 uM incubated for 48 hrs by RT-qPCR analysis; format: cell-based
microRNA 21 [15] = assay: Inhibition of miR-21 in human HeLa cells assessed as upregulation of SLIT2 level at 10 uM incubated for 48 hrs by RT-qPCR analysis; format: cell-based
microRNA 21 [16] = assay: Inhibition of miR-21 in human HeLa cells assessed as increase in PTEN level at 10 to 20 uM incubated for 48 hrs by RT-qPCR analysis; format: cell-based; conditions: dose 10-20 µM
HeLa [17] = assay: Inhibition of colony formation in human HeLa cells incubated for 14 days by crystal violet staining based assay; format: functional, cell-based; conditions: dose 0.1-10 µM, time 14.0 day, DDE = dose-dependent effect
HeLa [18] = assay: Induction of apoptosis in human HeLa cells assessed as viable cells at 20 uM incubated for 24 hrs by annexin V-FITC and propidium iodide staining based flow cytometry (reference value: 93.54%); format: functional; conditions: read-out: Activity
HeLa [19] = assay: Inhibition of cell migration in human HeLa cells at 10 to 20 uM and measured after 24 hrs by crystal violet staining based transwell migration assay; format: functional; conditions: dose 10-20 µM
microRNA 21 [20] = assay: Inhibition of miR-21 in human HeLa cells assessed as downregulation of pre-miR-21 level at 10 uM and measured for 24 to 48 hrs by RT-qPCR analysis; format: cell-based; conditions: time 24-48 hrs
microRNA 21 [21] = assay: Inhibition of miR-21 in human HeLa cells assessed as reduction in mature miR-21 level at 10 to 20 uM measured after 24 hrs by RT-qPCR analysis; format: cell-based; conditions: dose 10-20 µM
HeLa [22] = assay: Induction of apoptosis in human HeLa cells assessed as early apoptotic cells at 10 uM incubated for 24 hrs by annexin V-FITC and propidium iodide staining based flow cytometry (reference value: 4.35%); format: functional
HeLa [23] = assay: Induction of apoptosis in human HeLa cells assessed as late apoptotic cells at 20 uM incubated for 24 hrs by annexin V-FITC and propidium iodide staining based flow cytometry (reference value: 2.03%); format: functional
microRNA 21 [24] = assay: Inhibition of miR-21 in human HeLa cells assessed as reduction in mature miR-21 level at 10 to 20 uM measured after 48 hrs by RT-qPCR analysis relative to control; format: cell-based; conditions: dose 10-20 µM
HeLa [25] = assay: Induction of apoptosis in human HeLa cells assessed as late apoptotic cells at 10 uM incubated for 24 hrs by annexin V-FITC and propidium iodide staining based flow cytometry (reference value: 2.03%); format: functional
HCT-116 [26] = assay: Inhibition of colony formation in human HCT-116 cells incubated for 14 days by crystal violet staining based assay; format: functional, cell-based; conditions: dose 0.1-10 µM, time 14.0 day, DDE = dose-dependent effect
HeLa [27] = assay: Induction of apoptosis in human HeLa cells assessed as early apoptotic cells at 20 uM incubated for 24 hrs by annexin V-FITC and propidium iodide staining based flow cytometry (reference value: 4.35%); format: functional
microRNA 21 [28] = assay: Inhibition of miR-21 in human HeLa cells assessed as upregulation of EGR1 level at 10 uM incubated for 48 hrs by RT-qPCR analysis; format: cell-based
HeLa [29] = assay: Induction of apoptosis in human HeLa cells assessed as viable cells at 10 uM incubated for 24 hrs by annexin V-FITC and propidium iodide staining based flow cytometry (reference value: 93.54%); format: functional; conditions: read-out: Activity
microRNA 21 [30] = assay: Inhibition of miR-21 in human HeLa cells assessed as increase in luciferase activity measured after 48 hrs by bright Glo-luciferase reporter gene assay; format: cell-based
microRNA 21 [31] = assay: Inhibition of miR-21 maturation in human MCF7 cells assessed as reduction in pre-miR-21 expression at 5 uM incubated for 48 hrs by RT-PCR analysis relative to control; format: cell-based
microRNA 21 [32] = assay: Inhibition of miR-21 (unknown origin) maturation assessed as cleavage of pre-miR-21 at 5 uM by RT-qPCR analysis relative to control; format: nucleic-acid assay; conditions: Homo sapiens

## N#CC1CNC(N)NC1N (centres undefined)
microRNA 21 [1]
  inhibition: 50%
microRNA 21 [2]
  inhibition: 50%
microRNA 21 [3]
  inhibition: 50%
microRNA 21 [4]
  inhibition: 50%

## CCn1cc(C(=O)NCCN2CCCCC2)c(=O)c2cc(F)c(N3CCNCC3)cc21
microRNA 21 [5]
  fold change (FC): 0.91

## CCn1cc(C(=O)Nc2ccc(C(=O)NC(C)C)cc2)c(=O)c2cc(F)c(N3CCNCC3)cc21
microRNA 21 [5]
  fold change (FC): 1.8
HeLa [6]
  IC50: > 100 µM

## CCn1cc(C(=O)Nc2ccc(C(=O)NC3CCOCC3)cc2)c(=O)c2cc(F)c(N3CCNCC3)cc21
microRNA 21 [5]
  fold change (FC): 0.69

## C#CCNC(=O)c1ccc(NC(=O)c2cn(CC)c3cc(N4CCN(C(=O)CC56CC7CC(CC(C7)C5)C6)CC4)c(F)cc3c2=O)cc1
microRNA 21 [5]
  fold change (FC): 0.98

## CCCCNC(=O)c1ccc(NC(=O)c2cn(CC)c3cc(N4CCNCC4)c(F)cc3c2=O)cc1
microRNA 21 [5]
  fold change (FC): 0.98

## CCn1cc(C(=O)Nc2ccc(F)cc2)c(=O)c2cc(F)c(N3CCN(Cc4ccccc4)CC3)cc21
HCT-116 [7]
  IC50: > 100 µM
microRNA 21 [5]
  fold change (FC): 1.63
HeLa [6]
  IC50: > 100 µM

## CCN(CC)CCNC(=O)c1ccc(NC(=O)c2cn(CC)c3cc(N4CCNCC4)c(F)cc3c2=O)cc1
microRNA 21 [5]
  fold change (FC): 1.36

## C#CCNC(=O)c1ccc(NC(=O)c2cn(CC)c3cc(N4CCN(Cc5ccccc5)CC4)c(F)cc3c2=O)cc1
microRNA 21 [5]
  fold change (FC): 1.47

## CCn1cc(C(=O)NC2CCN(Cc3ccccc3)CC2)c(=O)c2cc(F)c(N3CCNCC3)cc21
microRNA 21 [5]
  fold change (FC): 1.09

## CCn1cc(C(=O)Nc2ccc(C(=O)NCCN3CCCCC3)cc2)c(=O)c2cc(F)c(N3CCNCC3)cc21
[8]
  IC50 at 24 h: > 100 µM
microRNA 21 [9]
  inhibition: Active
HeLa [10]
  Activity: 0.24%
HeLa [11]
  Activity: 0.58%
microRNA 21 [12]
  inhibition: Active
microRNA 21 [13]
  fold change (FC): 1.42
microRNA 21 [14]
  inhibition: Active
microRNA 21 [15]
  inhibition: Active
microRNA 21 [16]
  inhibition: Active
HeLa [17]
  inhibition: Dde
HeLa [18]
  viability at 20 µM: 84.6%
HeLa [19]
  Activity: Active
microRNA 21 [20]
  inhibition: Active
microRNA 21 [21]
  inhibition: Active
HCT-116 [7]
  IC50: 2.8 µM
HeLa [22]
  Activity: 5.74%
HeLa [23]
  Activity: 4.18%
microRNA 21 [24]
  inhibition: Active
HeLa [25]
  Activity: 2.23%
microRNA 21 [5]
  fold change (FC): 2.01
HCT-116 [26]
  inhibition: Dde
HeLa [27]
  Activity: 10.67%
HeLa [6]
  IC50: 5.5 µM
microRNA 21 [28]
  inhibition: Active
HeLa [29]
  viability at 10 µM: 91.8%

## C#CCNC(=O)c1ccc(NC(=O)c2cn(CC)c3cc(N4CCN(CC5CC5)CC4)c(F)cc3c2=O)cc1
microRNA 21 [5]
  fold change (FC): 1.07

## C#CCNC(=O)c1ccc(/N=N/c2ccccc2)cc1
microRNA 21 [5]
  fold change (FC): 1.41
microRNA 21 [30]
  EC50: 2 µM

## C#CCNC(=O)c1ccc(NC(=O)c2ccccc2Br)cc1
microRNA 21 [5]
  fold change (FC): 1.64

## CC[C@@]1(O)C(=O)OCc2c1cc1n(c2=O)Cc2cc3cc(O)ccc3nc2-1 [HYDROXYCAMPTOTHECIN]
HCT-116 [7]
  IC50: 0.05 µM
HeLa [6]
  IC50: 0.06 µM

## CCn1cc(C(=O)O)c(=O)c2cc(F)c(N3CCNCC3)cc21
microRNA 21 [5]
  fold change (FC): 1.08

## CCn1cc(C(=O)Nc2ccccc2)c(=O)c2cc(F)c(N3CCN(Cc4ccccc4)CC3)cc21
microRNA 21 [5]
  fold change (FC): 1.24

## CCn1cc(C(=O)Nc2ccc(C(=O)NCC(C)C)cc2)c(=O)c2cc(F)c(N3CCNCC3)cc21
microRNA 21 [5]
  fold change (FC): 1.92
HeLa [6]
  IC50: 13.2 µM

## CCn1cc(C(=O)Nc2ccc(C(=O)NCC3CC3)cc2)c(=O)c2cc(F)c(N3CCNCC3)cc21
microRNA 21 [5]
  fold change (FC): 0.72

## CCn1cc(C(=O)N2CCCCC2)c(=O)c2cc(F)c(N3CCN(Cc4ccccc4)CC3)cc21
microRNA 21 [5]
  fold change (FC): 1.12

## C#CCNC(=O)c1ccc(NC(=O)c2cn(CC)c3cc(N4CCNCC4)c(F)cc3c2=O)cc1
microRNA 21 [5]
  fold change (FC): 1.15

## CCn1cc(C(=O)NCCN2CCOCC2)c(=O)c2cc(F)c(N3CCNCC3)cc21
microRNA 21 [5]
  fold change (FC): 0.57

## C#CCNC(=O)c1cn(CC)c2cc(N3CCN(Cc4ccccc4)CC3)c(F)cc2c1=O
microRNA 21 [5]
  fold change (FC): 1

## CN[C@@H]1[C@H](O[C@H]2[C@H](O[C@H]3[C@H](O)[C@@H](O)[C@H](N=C(N)N)[C@@H](O)[C@@H]3N=C(N)N)O[C@@H](C)[C@]2(O)C=O)O[C@@H](CO)[C@H](O)[C@H]1O
microRNA 21 [31]
  inhibition: 80%
microRNA 21 [5]
  fold change (FC): 1.1

## NC[C@H]1O[C@H](O[C@H]2[C@H](O[C@@H]3O[C@H](CSCCNC(=O)CCCCCn4cc(COCCOc5ccc6c(c5)C(=O)N(O)C(=O)C6)nn4)[C@@H](O[C@H]4O[C@H](CN)[C@@H](O)[C@H](O)[C@H]4N)[C@H]3O)[C@@H](O)[C@H](N)C[C@@H]2N)[C@H](N)[C@@H](O)[C@@H]1O
microRNA 21 [32]
  inhibition: 90%
